Results from EP0007672A1, “Isocyanoalkenes, process and useful intermediates for their preparation, pharmaceutical and fungicidal preparations containing those isocyanoalkenes and the use of the fungicidal preparations in agriculture” (GIST-BROCADES N.V., priority 1978, dated 1980).
Read-outs that look alike come from different tables or passages of the source.

Tests used:
Test in all cases: MIC (Minimum Inhibitory Concentration)
Format in all cases: cell-based
Rhizoctonia solani = settings: Rhizoctonia solani, read-out: MIC values
[1] = test system: Trichophyton soudanese joyeux; settings: read-out: MIC values
Trichophyton violoceum = settings: read-out: MIC values
[2] = test system: Trichophyton mentagrophytus
Fusarium (tulip) = Fusarium (tulip) A 3253
[3] = test system: Trichophyton schoenleinii; settings: read-out: MIC values
Trichophyton rubrum = test system: Trichophyton rubrum
Fusarium (bulb) = Fusarium (bulb) A 3252
Fusarium solani = settings: Fusarium solani, read-out: MIC values
Trichophyton equinum = test system: Trichophyton equinum
Candida albicans = test system: Candida albicans
Trichophyton quickeaneum = settings: Trichophyton, read-out: MIC values
Trichophyton verrucosum = test system: Trichophyton verrucosum
Pasteurella multocida = settings: read-out: MIC values
Staphylococcus aureus = test system: Staphylococcus aureus
Bacillus subtilis = settings: ATCC6633; Bacillus subtilis ATCC 6633
Diplococcus pneumoniae = settings: Streptococcus pneumoniae; Diplococcus pneumoniae A 2783
[4] = test system: Streptococcus haemolyticus; settings: read-out: MIC values
Trichophyton tonsurans = settings: read-out: MIC values
Proteus morganii = settings: Morganella morganii; Proteus morganii 2241
[5] = read-out: MIC values, Trichophyton mentagrophytus 367-68
[6] = read-out: MIC values, Trichophyton mentagrophytus 421-67
[7] = read-out: MIC values, Trichophyton mentagrophytus A 3252
[8] = read-out: MIC values, Trichophyton mentagrophytus R 177
[9] = read-out: MIC values, Trichophyton mentagrophytus R 178
[10] = read-out: MIC values, Trichophyton mentagrophytus RRL 305
[11] = read-out: MIC values, Trichophyton rubrum 494-62
[12] = read-out: MIC values, Trichophyton rubrum A 810
[13] = read-out: MIC values, Trichophyton equinum 182-76
[14] = read-out: MIC values, Trichophyton equinum 856-71
[15] = read-out: MIC values, Candida albicans A 7
[16] = read-out: MIC values, Candida albicans A 3140
[17] = read-out: MIC values, Candida albicans A 3141
[18] = read-out: MIC values, Candida albicans A 3142
[19] = read-out: MIC values, Candida albicans A 3143
[20] = read-out: MIC values, Candida albicans A 3144
[21] = read-out: MIC values, Candida albicans A 3145
[22] = read-out: MIC values, Candida albicans A 3165
[23] = read-out: MIC values, Candida albicans A 3166
[24] = read-out: MIC values, Candida albicans A 3167
[25] = read-out: MIC values, Candida albicans A 3168
[26] = read-out: MIC values, Candida albicans A 3169
[27] = read-out: MIC values, Candida albicans A 3171
[28] = read-out: MIC values, Candida albicans A 3184
[29] = read-out: MIC values, Candida albicans A 3190
[30] = read-out: MIC values, Candida albicans A 3191
[31] = read-out: MIC values, Candida albicans A 3192
[32] = read-out: MIC values, Candida albicans A 3194
[33] = read-out: MIC values, Candida albicans A 3196

Measured: MIC

[C-]#[N+]C(=C1CCCCC1)S(=O)(=O)c1ccc(C)cc1 [Example 7, a-cyclohexylidene-a-(4-toluenesulphonyl)-methylisocyanide]
6 mg/L: Candida albicans; [19] | Candida albicans; [20] | Candida albicans; [21] | Candida albicans; [22] | Candida albicans; [23] | Candida albicans; [24] | Candida albicans; [25] | Candida albicans; [26] | Candida albicans; [27] | Candida albicans; [30] | Candida albicans; [31] | Candida albicans; [32]
0.2 mg/L: Trichophyton violoceum; Trichophyton | [3]; Trichophyton schoenleinii
0.8 mg/L: [2]; [5] | [2]; [7] | Trichophyton rubrum; [11] | Trichophyton rubrum; [12] | Candida albicans; [15] | Trichophyton quickeaneum
18.8 mg/L: Fusarium (bulb)
3 mg/L: [2]; [8] | Trichophyton equinum; [13] | Trichophyton equinum; [14] | Candida albicans; [16] | Candida albicans; [28] | Candida albicans; [29]
1.5 mg/L: Rhizoctonia solani | [2]; [6] | [2]; [10]
12.5 mg/L: [1]; Trichophyton | [2]; [9] | Fusarium (tulip) | Fusarium solani | Candida albicans; [17] | Candida albicans; [18] | Candida albicans; [33]

[C-]#[N+]C(=Cc1ccc(OC)cc1)S(=O)(=O)c1ccc(C)cc1 [Example 23, 1-isocyano-2-(4-methoxyphenyl)-1-(4-toluenesulphonyl)-ethene]
12.5 mg/L: [2]; Trichophyton mentagrophytus R 177, read-out: MIC values
6 mg/L: [1]; Trichophyton soudanese joyeux 440-63 | Diplococcus pneumoniae | Proteus morganii
< 0.05 mg/L: [4]; Streptococcus haemolyticus A 1088
> 100 mg/L: [2]; Trichophyton mentagrophytus R 178, read-out: MIC values
100 mg/L: [2]; Trichophyton mentagrophytus 421-67, read-out: MIC values | [2]; Trichophyton mentagrophytus A 3252, read-out: MIC values | Trichophyton rubrum; Trichophyton rubrum 494-62, read-out: MIC values | Trichophyton equinum; Trichophyton equinum 856-71, read-out: MIC values
3 mg/L: Pasteurella multocida; Pasteurella multocida A 723 | Trichophyton violoceum; Trichophyton violoceum 442-62 | [3]; Trichophyton schoenleinii 435-63 | Staphylococcus aureus; Staphylococcus aureus A 321 | Staphylococcus aureus; Staphylococcus aureus A 355 | Bacillus subtilis
25 mg/L: [2]; Trichophyton mentagrophytus 367-68, read-out: MIC values | [2]; Trichophyton mentagrophytus RRL 305, read-out: MIC values | Trichophyton rubrum; Trichophyton rubrum 218-65, read-out: MIC values | Trichophyton rubrum; Trichophyton rubrum A 810, read-out: MIC values
0.8 mg/L: Trichophyton tonsurans; Trichophyton tonsurans 561-50
1.5 mg/L: Trichophyton verrucosum; Trichophyton verrucosum 134-66, read-out: MIC values | Staphylococcus aureus; Staphylococcus aureus A 2000 | Trichophyton equinum; Trichophyton equinum 441-51, read-out: MIC values | Candida albicans; Candida albicans A 7, read-out: MIC values | Candida albicans; Candida albicans A 3140, read-out: MIC values | Candida albicans; Candida albicans A 3141, read-out: MIC values | Candida albicans; Candida albicans A 3142, read-out: MIC values | Candida albicans; Candida albicans A 3143, read-out: MIC values | Candida albicans; Candida albicans A 3144, read-out: MIC values | Candida albicans; Candida albicans A 3145, read-out: MIC values | Candida albicans; Candida albicans A 3165, read-out: MIC values | Candida albicans; Candida albicans A 3166, read-out: MIC values | Candida albicans; Candida albicans A 3167, read-out: MIC values | Candida albicans; Candida albicans A 3168, read-out: MIC values | Candida albicans; Candida albicans A 3169, read-out: MIC values | Candida albicans; Candida albicans A 3171, read-out: MIC values | Candida albicans; Candida albicans A 3184, read-out: MIC values | Candida albicans; Candida albicans A 3190, read-out: MIC values | Candida albicans; Candida albicans A 3191, read-out: MIC values | Candida albicans; Candida albicans A 3192, read-out: MIC values | Candida albicans; Candida albicans A 3194, read-out: MIC values | Candida albicans; Candida albicans A 3196, read-out: MIC values

[C-]#[N+]C(=C1CCCC1)S(=O)(=O)c1ccc(C)cc1 [Example 9, a-cyclopentylidene-a-(4-toluenesulphonyl)-methylisocyanide]
12.5 mg/L: [2]; [9] | Fusarium (tulip) | Fusarium solani
1.5 mg/L: Rhizoctonia solani | [2]; [7] | Trichophyton rubrum; [11] | Candida albicans; [16] | Candida albicans; [18] | Candida albicans; [20] | Candida albicans; [21] | Candida albicans; [28] | Candida albicans; [29] | Trichophyton quickeaneum
0.8 mg/L: [2]; [10] | Trichophyton rubrum; read-out: MIC values, Trichophyton rubrum 218-65 | Candida albicans; [15] | Candida albicans; [19] | Candida albicans; [30] | Candida albicans; [31] | Candida albicans; [32]
< 0.05 mg/L: Trichophyton verrucosum; read-out: MIC values, Trichophyton verrucosum 134-66 | Trichophyton equinum; [14]
0.1 mg/L: Trichophyton rubrum; [12] | Trichophyton equinum; read-out: MIC values, Trichophyton equinum 441-51
3 mg/L: Pasteurella multocida; Pasteurella multocida | [2]; [5] | [2]; [8] | Trichophyton equinum; [13] | Candida albicans; [17] | Candida albicans; [22] | Candida albicans; [24] | Candida albicans; [26] | Candida albicans; [27] | Candida albicans; [33]
0.4 mg/L: Trichophyton verrucosum; read-out: MIC values, Trichophyton verrucosum A 2922 | Trichophyton violoceum; Trichophyton | [3]; Trichophyton schoenleinii
6 mg/L: [1]; Trichophyton | [2]; [6] | Trichophyton tonsurans; Trichophyton tonsurans | Candida albicans; [23] | Candida albicans; [25]
25 mg/L: Fusarium (bulb) | [4]; Streptococcus
